Results reported in patent US20250025411A1, “READILY SOLUBLE AND THERMOSTABLE GLUCAGON FORMULATIONS AND DELIVERY FOR MINI-DOSING AND CLOSED -LOOP PROPHYLACTIC TREATMENT OF HYPOGLYCEMIA” (Massachusetts Institute of Technology, priority 2023, published 2025).

Experiment: High throughput screening of water-soluble solid excipients for glucagon dissolution
Assay type: physicochemical
Settings: for Fold change vs. PBS Avg.: 30-minute incubation in pH 7.4 PBS containing 1 mg/mL excipient; for Fold change vs. PBS Avg. / Glucagon concentration Avg.: 37° C.; for Glucagon concentration Avg.: solubilized glucagon after 30-minute incubation of lyophilized glucagon in pH 7.4 PBS containing 1 mg/mL excipient; for enhancement of glucagon dissolution (statistical significance compared to no excipient): 30-minute incubation in pH 7.4 PBS at 37° C.

Compound | Fold change vs. PBS Avg. [fold] | Glucagon concentration Avg. [mg/mL] | enhancement of solution glucagon concentration compared to unformulated glucagon (pH 7.4 PBS) | Fold change vs. PBS Avg. (listed as L-Histidine) [fold] | Glucagon concentration Avg. (listed as L-Histidine) [mg/mL] | enhancement of glucagon dissolution (statistical significance compared to no excipient)
NC(=O)CN(CC(=O)O)CC(=O)O [ADA] | 0.26 | 0.06 | – | – | – | –
O=S(=O)(O)CCN1CCN(CCO)CC1 [HEPES] | 1.15 | 0.25 | – | – | – | –
[Cl-].[K+] [Potassium chloride] | 1.89 | 0.41 | – | – | – | –
OCCN(CCO)C(CO)(CO)CO [BIS-TRIS] | 1.67 | 0.36 | – | – | – | –
CCCCCCCCCCCCOP(=O)([O-])OCC[N+](C)(C)C [Dodecylphosphocholine] | 4.37 | 0.94 | – | – | – | successfully enhanced the dissolution of glucagon
O=C([O-])c1ccccc1O.[Na+] [Sodium Salicylate] | 1.84 | 0.40 | – | – | – | –
O=C([O-])[C@H](O)[C@@H](O)[C@H](O)[C@H](O)CO.[K+] [Potassium Gluconate] | 1.61 | 0.35 | – | – | – | –
CC(C)(O)C(Cl)(Cl)Cl [Chlorobutanol Hemihydrate] | 1.83 | 0.39 | – | – | – | –
CC(C)(S)[C@@H](N)C(=O)O [D-Penicillamine] | 1.42 | 0.31 | – | – | – | –
Nc1nc2ncc(CNc3ccc(C(=O)N[C@@H](CCC(=O)O)C(=O)O)cc3)nc2c(=O)[nH]1 [Folic acid] | 1.98 | 0.43 | – | – | – | –
O=C([O-])[C@H](O)[C@@H](O)[C@H](O)[C@H](O)CO.[Na+] [Sodium Gluconate] | 0.69 | 0.15 | – | – | – | –
O=S(=O)([O-])CCC[P+](c1ccccc1)(c1ccccc1)c1ccccc1 [3-(Triphenylphosphonio)propane-1-sulfonate] | 1.21 | 0.26 | – | – | – | –
O=S([O-])S(=O)[O-].[Na+].[Na+] [Sodium Dithionite] | 2.25 | 0.49 | – | – | – | –
O=S(=O)(O)CCCN1CCN(CCO)CC1 [EPPS] | 0.79 | 0.17 | – | – | – | –
C[N+](C)(C)CC(=O)O [Betaine] | 1.11 | 0.24 | – | – | – | –
Cl.N[C@@H](CS)C(=O)O [L-Cysteine hydrochloride] | 0.93 | 0.20 | – | – | – | –
O=C[C@H](O)[C@@H](O)[C@H](O)[C@H](O)CO [D-glucose] | 1.08 | 0.23 | – | – | – | –
O=C(O)CN(CCOCCOCCN(CC(=O)O)CC(=O)O)CC(=O)O [EGTA] | 3.11 | 0.67 | – | – | – | –
O=C(O)C(S)C(S)C(=O)O (centres unmarked) [Dimercaptosuccinic acid] | 2.38 | 0.51 | – | – | – | –
NC(=O)CNCCS(=O)(=O)O [ACES] | 1.12 | 0.24 | – | – | – | –
CC(O)COC[C@H]1O[C@@H]2O[C@H]3[C@H](O)[C@@H](O)[C@@H](O[C@H]4[C@H](O)[C@@H](O)[C@@H](O[C@H]5[C@H](O)[C@@H](O)[C@@H](O[C@H]6[C@H](O)[C@@H](O)[C@@H](O[C@H]7[C@H](O)[C@@H](O)[C@@H](O[C@H]8[C@H](O)[C@@H](O)[C@@H](O[C@H]1[C@H](O)[C@H]2O)O[C@@H]8COCC(C)O)O[C@@H]7COCC(C)O)O[C@@H]6COCC(C)O)O[C@@H]5COCC(C)O)O[C@@H]4COCC(C)O)O[C@@H]3COCC(C)O (some centres unmarked) [Hydroxypropyl Betadex] | 1.74 | 0.37 | – | – | – | –
Sodium deoxycholate | 1.75 | 0.38 | – | – | – | –
OC[C@H]1O[C@H](O[C@H]2O[C@H](CO)[C@@H](O)[C@H](O)[C@H]2O)[C@H](O)[C@@H](O)[C@@H]1O [D-(+)-Trehalose] | 1.55 | 0.33 | – | – | – | –
O=C(CO)[C@@H](O)[C@H](O)[C@H](O)CO [D-(−)-Fructose] | 1.09 | 0.23 | – | – | – | –
NCCC(=O)O [Beta-Alanine] | 1.34 | 0.29 | – | – | – | –
CC[C@H](C)[C@H](N)C(=O)O [Isoleucine] | 1.88 | 0.41 | – | – | – | –
OC[C@@H](O)[C@@H](O)[C@H](O)[C@@H](O)CO [D-Sorbitol] | 1.16 | 0.25 | – | – | – | –
Bovine serum albumin | 2.86 | 0.62 | – | – | – | –
NCCCC[C@H](N)C(=O)O [L-lysine] | 2.84 | 0.61 | – | – | – | –

More lines, main results first:

Fold change vs. PBS Avg. [fold] | Glucagon concentration Avg. [mg/mL] | enhancement of solution glucagon concentration compared to unformulated glucagon (pH 7.4 PBS) | Fold change vs. PBS Avg. (listed as L-Histidine) [fold] | Glucagon concentration Avg. (listed as L-Histidine) [mg/mL] | Compound | enhancement of glucagon dissolution (statistical significance compared to no excipient)
0.35 | 0.08 | – | – | – | O=C(O)CC(O)C(=O)O (centres unmarked) [Malic Acid] | –
1.66 | 0.36 | – | – | – | N[C@@H](Cc1ccccc1)C(=O)O [L-Phenylalanine] | –
2.50 | 0.54 | – | – | – | NC(CO)(CO)CO [Tris base] | –
0.80 | 0.17 | – | – | – | O=S(=O)(O)CCCN1CCOCC1 [MOPS] | –
3.87 | 0.83 | – | – | – | NC(=O)CC[C@H](N)C(=O)O [L-Glutamine] | successfully enhanced the dissolution of glucagon
0.52 | 0.11 | – | – | – | CCCCCCCCCCCC[N+](C)(C)CCCS(=O)(=O)O [Lauryl sulfobetaine] | –
1.95 | 0.42 | – | – | – | O=C(O)CN(CCN(CC(=O)O)CC(=O)O)CCN(CC(=O)O)CC(=O)O [Pentetic Acid] | –
5.33 | 1.15 | up to 500% | – | – | CCCCCCCCCCCCCC[N+](C)(C)CCCS(=O)(=O)[O-] [Myristyl sulfobetaine] | successfully enhanced the dissolution of glucagon
1.17 | 0.25 | – | – | – | NC(=O)c1cccnc1 [Niacinamide] | –
1.32 | 0.28 | – | – | – | OC[C@H]1O[C@@](CO)(O[C@H]2O[C@H](CO)[C@@H](O)[C@H](O)[C@H]2O)[C@@H](O)[C@@H]1O [Sucrose] | –
1.27 | 0.27 | – | – | – | Methyl-B-Cyclodextrin | –
2.57 | 0.55 | – | 1.41 | 0.30 | N[C@@H](Cc1c[nH]cn1)C(=O)O [L-histidine] | –
1.35 | 0.29 | – | – | – | O=C(O)[C@H](O)[C@@H](O)[C@H](O[C@@H]1O[C@H](CO)[C@H](O)[C@H](O)[C@H]1O)[C@H](O)CO [Lactobionic Acid] | –
1.81 | 0.39 | – | – | – | CSCC[C@H](N)C(=O)O [Methionine] | –
– | 1.32 | – | – | – | CNC[C@H](O)[C@@H](O)[C@H](O)[C@H](O)CO [Meglumine] | –
0.34 | 0.07 | – | – | – | O=C(O)/C=C\C(=O)O [Maleic Acid] | –
0.08 | 0.02 | – | – | – | O=C(OC[C@H]1O[C@@H](OC(=O)c2cc(O)c(O)c(OC(=O)c3cc(O)c(O)c(O)c3)c2)[C@H](OC(=O)c2cc(O)c(O)c(OC(=O)c3cc(O)c(O)c(O)c3)c2)[C@@H](OC(=O)c2cc(O)c(O)c(OC(=O)c3cc(O)c(O)c(O)c3)c2)[C@@H]1OC(=O)c1cc(O)c(O)c(OC(=O)c2cc(O)c(O)c(O)c2)c1)c1cc(O)c(O)c(OC(=O)c2cc(O)c(O)c(O)c2)c1 [Tannic Acid] | –
1.52 | 0.33 | – | – | – | O=C[C@H](O)[C@@H](O)[C@@H](O)CO [L-(+)-Arabinose] | –
2.49 | 0.54 | – | – | – | OC[C@@H](O)[C@@H](O)[C@H](O)[C@H](O)CO [Mannitol] | –
